Assay results: the NIST ThermoML archive (doi:10.1021/je501130r)
± gives the expanded uncertainty stated by the source.

Details: Liquid, Closed cell (Static) method

Row | Structure (SMILES) | vapor or sublimation pressure (293.15 K) | vapor or sublimation pressure (303.15 K) | vapor or sublimation pressure (313.15 K)
1 | CC(F)(Cl)C(F)(F)F (stereo unspecified) [2-chloro-1,1,1,2-tetrafluoropropane] | 128.3 ± 3 kPa | 181.6 ± 3.1 kPa | 247.6 ± 3.1 kPa
2 | C=C(F)C(F)(F)F [2,3,3,3-tetrafluoro-1-propene] | 591.5 ± 3.5 kPa | 783.6 ± 3.8 kPa | 1018.9 ± 4.3 kPa
